Assay results published in publication PMC8635542, “Pharmacokinetic study on the interaction between succinic acid and irbesartan in rats and its potential mechanism” (Pharmaceutical Biology, 2021).

Tested on: T1, CYP2C9
T1 construct: gene Cyp2c6
Conditions: diclofenac as substrate, NADPH-regenerating system (G-6-P, NADP+, G-6-PDH), MgCl2; succinic acid 0-100 μM

- IC50: 13.9 µM
Compound: O=C(O)CCC(=O)O [succinic acid]
